Assay results as given in patent publication US20260144739A1, “A SKIN BRIGHTENING COMPOSITION” (Conopco, Inc., d/b/a UNILEVER, priority 2022, published 2026).

What was measured:
[1] = test system: Co-cultures of HaCat keratinocytes and primary human melanocytes; experiment: Cell viability by the Calcein AM method in the co-cultures; assay type: cell-based; settings: 4-HR at concentrations higher than 0.0002%, at the cellular level in invitro experiments
Description: (§1) Co-cultures of HaCat keratinocytes and primary human melanocytes were mixed at 40,000 each (1:1 ratio) in 1 ml of a 1:1 mix of their respective culture medium and seeded as such per well, in 12 well plates. After 24 hrs, cultures were treated with various concentrations of the test materials shown in table 1 and left undisturbed for a further period of 72 hrs. Comparative vehicle control was also set up simultaneously. For melanin estimation at the end of the 72 hrs incubation, cell viability was first determined using the Calcein AM method. Briefly, spent media was removed and cells were washed once with 0.4 ml of 1×PBS/well. Fresh 1 μM calcein-AM in PBS buffer was added to each well, including control wells without cells. Plates were covered with aluminium foil and incubated for 30 mins at 37° C. in a CO2 incubator. Calcein fluorescence was measured (excitation at 490 nm and emission at 520 nm) in a TECAN M1000 plate reader. Culture wells were drained and lysed using 1N NaOH containing 10% DMSO and placed for 1 hour at 60° C. in a shaker incubator. 100 μl of the supernatant was transferred to a 384 well plate and melanin was measured in a TECAN plate reader (405 nm filter). Melanin content (MC) was expressed after correction for cell numbers (MC/Calcein) and represented as % melanin.

[2] = test system: Co-cultures of HaCat keratinocytes and primary human melanocytes; experiment: Melanin content assay (% melanin reduction) in keratinocyte + melanocyte co-cultures; assay type: cell-based; settings: 72 hrs treatment; melanin (405 nm) corrected for cell numbers (MC/Calcein); vs DMSO control; actives in wt % as per example; fermented oil samples diluted 1:40
Description: Various samples containing actives were prepared and the % melanin reduction was measured. The protocol for measuring the melanin reduction is summarized below:
as §1, with “Melanin content (MC) was expressed after correction for cell numbers (MC/Calcein) and represented as % melanin.” left out

Structure (SMILES) | cell viability [1] | % melanin reduction [2]
CCCCCCc1ccc(O)cc1O [Example 4-HR, 4-hexyl resorcinol] | leads to cell viability problems | 
CCCCCCc1ccc(O)cc1O [B] |  | 23%
CCCCCCc1ccc(O)cc1O [C] |  | 3%
